Results from PubChem BioAssay AID222 (DTP/NCI, 2004).
Values joined by “and” are separate entries in the source; they are usually repeats but may differ in a detail not shown here. Equal values may be shown once. Inconclusive results and toxic doses are left out.

System: C57BL/6 mice, intracerebral ependymoblastoma, median survival T/C
Assay: NCI In Vivo Anticancer Drug Screen. Data for tumor model Ependymoblastoma (intracerebral) in C57BL/6 mice
Details: endpoint: median survival time, higher = longer survival
Method: The antitumor activity of compounds was measured in mice bearing transplantable tumors. Survival or tumor size were measured and the results are expressed as the measurement made in the treated group (T) divided by the measurement made in the vehicle treated control group (C). The tumor model used in this assay is Ependymoblastoma (intracerebral) in C57BL/6 mice

O=NN(CCCl)C(=O)NC1CCC(=O)NC1=O (stereo not drawn)
T/C (dose: 0.5 mg/kg/injection, schedule: Q01DX005 (ip), vehicle: Klucel (hydroxypropylcellulose) (HPC)): 103 % of control | T/C (dose: 0.5 mg/kg/injection, schedule: Q01DX005 (ip), vehicle: suspension in saline): 118 % of control | T/C (dose: 0.62 mg/kg/injection, schedule: Q01DX001 (ip), vehicle: other): 100 % of control | T/C (dose: 1.0 mg/kg/injection, schedule: Q01DX005 (ip), vehicle: Klucel (hydroxypropylcellulose) (HPC)): 100 % of control | T/C (dose: 1.0 mg/kg/injection, schedule: Q01DX005 (ip), vehicle: suspension in saline): 114 % of control | T/C (dose: 1.25 mg/kg/injection, schedule: Q01DX001 (ip), vehicle: other): 101 % of control | T/C (dose: 1.75 mg/kg/injection, schedule: Q01DX001 (ip), vehicle: other): 104 % of control | T/C (dose: 2.0 mg/kg/injection, schedule: Q#A X002 (ip), vehicle: saline): 100 % of control and 111 % of control | T/C (dose: 2.5 mg/kg/injection, schedule: Q01DX001 (ip), vehicle: other): 100 % of control | T/C (dose: 3.5 mg/kg/injection, schedule: Q01DX001 (ip), vehicle: other): 102 % of control and 104 % of control | T/C (dose: 3.5 mg/kg/injection, schedule: Q01DX001 (ip), vehicle: saline with Tween-80): 95 % of control | T/C (dose: 4.0 mg/kg/injection, schedule: Q01DX001 (ip), vehicle: saline with Tween-80): 106 % of control | T/C (dose: 4.0 mg/kg/injection, schedule: Q01DX005 (ip), vehicle: Klucel (hydroxypropylcellulose) (HPC)): 290 % of control | T/C (dose: 4.0 mg/kg/injection, schedule: Q01DX005 (ip), vehicle: suspension in saline): 298 % of control | T/C (dose: 4.0 mg/kg/injection, schedule: Q#A X002 (ip), vehicle: saline): 98 % of control and 99 % of control | T/C (dose: 5.0 mg/kg/injection, schedule: Q01DX001 (ip), vehicle: other): 119 % of control | T/C (dose: 5.0 mg/kg/injection, schedule: Q01DX001 (oral), vehicle: other): 161 % of control | T/C (dose: 7.0 mg/kg/injection, schedule: Q01DX001 (ip), vehicle: other): 113 % of control and 119 % of control | T/C (dose: 8.0 mg/kg/injection, schedule: Q01DX001 (ip), vehicle: saline with Tween-80): 106 % of control | T/C (dose: 8.0 mg/kg/injection, schedule: Q01DX005 (ip), vehicle: Klucel (hydroxypropylcellulose) (HPC)): 281 % of control | T/C (dose: 8.0 mg/kg/injection, schedule: Q#A X002 (ip), vehicle: saline): 102 % of control | T/C (dose: 10.0 mg/kg/injection, schedule: Q01DX001 (ip), vehicle: other): 162 % of control | T/C (dose: 10.0 mg/kg/injection, schedule: Q01DX001 (oral), vehicle: other): 210 % of control | T/C (dose: 10.0 mg/kg/injection, schedule: Q07DX003 (ip), vehicle: saline): 318 % of control | T/C (dose: 14.0 mg/kg/injection, schedule: Q01DX001 (ip), vehicle: saline with Tween-80): 102 % of control | T/C (dose: 16.0 mg/kg/injection, schedule: Q01DX001 (ip), vehicle: saline with Tween-80): 104 % of control | T/C (dose: 16.0 mg/kg/injection, schedule: Q01DX001 (oral), vehicle: Klucel (hydroxypropylcellulose) (HPC)): 106 % of control | T/C (dose: 16.0 mg/kg/injection, schedule: Q#A X002 (ip), vehicle: saline): 102 % of control and 112 % of control | T/C (dose: 20.0 mg/kg/injection, schedule: Q01DX001 (oral), vehicle: other): 90 % of control | T/C (dose: 20.0 mg/kg/injection, schedule: Q07DX003 (ip), vehicle: saline): 117 % of control | T/C (dose: 28.0 mg/kg/injection, schedule: Q01DX001 (ip), vehicle: other): 100 % of control and 103 % of control | T/C (dose: 28.0 mg/kg/injection, schedule: Q01DX001 (ip), vehicle: saline with Tween-80): 93 % of control | T/C (dose: 32.0 mg/kg/injection, schedule: Q01DX001 (ip), vehicle: saline with Tween-80): 105 % of control | T/C (dose: 32.0 mg/kg/injection, schedule: Q01DX001 (oral), vehicle: Klucel (hydroxypropylcellulose) (HPC)): 102 % of control | T/C (dose: 32.0 mg/kg/injection, schedule: Q#A X002 (ip), vehicle: saline): 100 % of control | T/C (dose: 56.0 mg/kg/injection, schedule: Q01DX001 (ip), vehicle: other): 88 % of control | T/C (dose: 56.0 mg/kg/injection, schedule: Q01DX001 (ip), vehicle: saline with Tween-80): 93 % of control | T/C (dose: 64.0 mg/kg/injection, schedule: Q01DX001 (ip), vehicle: saline with Tween-80): 109 % of control | T/C (dose: 64.0 mg/kg/injection, schedule: Q01DX001 (oral), vehicle: Klucel (hydroxypropylcellulose) (HPC)): 100 % of control | T/C (dose: 128.0 mg/kg/injection, schedule: Q01DX001 (oral), vehicle: Klucel (hydroxypropylcellulose) (HPC)): 102 % of control | T/C (dose: 256.0 mg/kg/injection, schedule: Q01DX001 (oral), vehicle: Klucel (hydroxypropylcellulose) (HPC)): 104 % of control

N=c1ccn2c(n1)OC1C(O)C(CO)OC12 (stereo not drawn)
T/C (dose: 100.0 mg/kg/injection, schedule: Q01DX001 (ip), vehicle: saline): 118 % of control | T/C (dose: 100.0 mg/kg/injection, schedule: Q01DX005 (ip), vehicle: saline): 106 % of control and 112 % of control | T/C (dose: 200.0 mg/kg/injection, schedule: Q01DX001 (ip), vehicle: saline): 123 % of control | T/C (dose: 200.0 mg/kg/injection, schedule: Q01DX005 (ip), vehicle: saline): 120 % of control and 122 % of control | T/C (dose: 400.0 mg/kg/injection, schedule: Q01DX001 (ip), vehicle: saline): 111 % of control | T/C (dose: 400.0 mg/kg/injection, schedule: Q01DX005 (ip), vehicle: saline): 122 % of control | T/C (dose: 800.0 mg/kg/injection, schedule: Q01DX001 (ip), vehicle: saline): 116 % of control

Nc1nc(=S)c2ncn(C3OC(CO)CC3O)c2[nH]1 (stereo not drawn)
T/C (dose: 5.0 mg/kg/injection, schedule: Q01DX005 (ip), vehicle: saline): 99 % of control | T/C (dose: 10.0 mg/kg/injection, schedule: Q01DX005 (ip), vehicle: saline): 99 % of control

COc1ccc2c(c1OC(C)=O)-c1cc(O)cc3c1C(C2)N(C(=O)CN(CCCl)CCCl)CC3 (stereo not drawn)
T/C (dose: 12.5 mg/kg/injection, schedule: Q04DX003 (ip), vehicle: saline): 94 % of control | T/C (dose: 25.0 mg/kg/injection, schedule: Q04DX003 (ip), vehicle: saline): 99 % of control | T/C (dose: 50.0 mg/kg/injection, schedule: Q04DX003 (ip), vehicle: saline): 86 % of control
